Counter-ions that a name gives are not always drawn.
Key:
mice = test: tolerability after intravenous administration in mice; format: in vivo; conditions: for sedation during the injection phase: mouse, in vivo, iv, 30 mg/kg
[1] = molecular target: Fibrinogen binding to human thrombocytes; test: Fibrinogen binding to human thrombocytes; conditions: 125I fibrinogen; gel-filtered human platelets; ADP; 20 minutes at ambient temperature; read-out: Fibrinogen binding test IC50
Procedure: Fibrinogen binding to human thrombocytes The blood obtained by puncturing an antecubital vein is anticoagulated with trisodium citrate (final concentration: 13 mM) and centrifuged for 10 minutes at 170 xg. The supernatant platelet-rich plasma is poured onto a Sepharose 2B column (Pharmacia) and eluted with a solution of 90 mM common salt, 14 mM trisodium citrate, 5 mM glucose and 50 mM Tris(hydroxymethyl)aminomethane, adjusted to pH 7.4. The gel-filtered platelets (GFP) appearing before the plasma proteins are used for the binding experiments. 50 μl of a 60 mM calcium chloride solution, 50 μl of a 0.6 mM adenosine diphosphate solution, 100 μl of substance solution or solvent and 50 μl of fibrinogen solution (containing 3 μg of ^125 I fibrinogen) are added to 750 μl of GFP and incubated for 20 minutes at ambient temperature. The non-specific binding is determined in the presence of 3 mg/ml of cold fibrinogen. 900 μl of the incubated material are carefully pipetted onto 250 μl of silicon oil (AP 38: AR 20, 1:2 v/v, Wacker Chemie) in Eppendorf tubes and centrifuged for 2 minutes at 10,000 xg. The aqueous supernatant and some of the oil are drawn off, the tips of the tubes are cut off together with the platelet pellet and the quantity of bound fibrinogen is determined in a gamma counter. The concentration of substance which brings about a 50% inhibition in fibrinogen binding is determined from a series of concentrations and is given as the IC50 value.

[2] = test system: thrombocyte (platelet) aggregation; test: Antithrombotic activity: collagen-induced thrombocyte aggregation in platelet rich plasma (Born and Cross); format: cell-based; conditions: Homo sapiens, platelet rich plasma from healthy test subjects, 10 minutes at 37° C. preincubation, 50% change in optical density, read-out: Inhibition of platelet aggregation EC50
Procedure: 2. Antithrombotic activity Method: Thrombocyte aggregation is measured in platelet rich plasma from healthy test subjects using the Born and Cross method (J. Physiol. 170, 397 (1964)). In order to inhibit coagulation the blood is mixed with sodium citrate 3.14% in a ratio by volume of 1:10. Collagen-induced aggregation: The course of the decrease in optical density of the platelet suspension is photometrically measured and recorded after the addition of the substance which triggers aggregation. The rate of aggregation is deduced from the gradient angle of the density curve. The point on the curve where there is maximum transmittance is used to calculate the optical density. The quantity of collagen used is as little as possible but sufficient to give an irreversible reaction curve. Standard commercial collagen produced by Hormonchemie of Munich is used. Before the addition of the collagen the plasma is incubated for 10 minutes at 37° C. with the substance. From the measurements obtained, an EC50 is determined graphically, relating to a 50% change in optical density in terms of the inhibition of aggregation.

[3] = test system: collagen-induced thrombocyte aggregation; test: collagen-induced thrombocyte aggregation ex vivo in Rhesus monkeys after oral administration; conditions: oral administration of 1 mg/kg
Procedure: Moreover, the compound of Example 8(5) inhibits the collagen-induced thrombocyte aggregation ex vivo in Rhesus monkeys, for example, after oral administration of 1 mg/kg for longer than 8 hours.

mouse = test: tolerability after peroral administration in the mouse; format: in vivo; conditions: 2.0 g/kg
rat = test: tolerability after peroral administration in the rat; format: in vivo; conditions: 2.0 g/kg

In the case of `N=C(N)c1ccc(-c2ccc(NC(=O)CCCC(=O)O)cc2)cc1` [1(1), 4-amidino-4'-(4-carboxybutyrylamino) biphenyl], the “sedation during the injection phase” value (mice) is reported as 1 or 2 animals were sedated, the IC50 [1] is reported as 160 nM and the EC50 [2] is reported as 1100 nM.
With `COc1ccc(CCNC(=O)C(CC(=O)O)NC(=O)Cc2ccc(-c3ccc(C(=N)N)cc3)cc2)cc1.Cl` (stereo not shown) [2(11), 4-amidino-4'-[[2-carboxy-1-[[2-(4-methoxyphenyl)-ethyl]aminocarbonyl]ethylamino]carbonylmethyl]biphenyl hydrochloride] the “sedation during the injection phase” value (mice) was 1 or 2 animals were sedated, the IC50 [1] was 360 nM and the EC50 [2] was 2200 nM.
For `COC(=O)CCCCNC(=O)c1ccc(-c2ccc(C(=N)N)cc2)cc1` [6(72), 4-amidino-4'-[(4-methoxycarbonylbutyl)amino-carbonyl]biphenyl hydrochloride], the IC50 [1] was 7400 nM and the EC50 [2] was 3400 nM.
With `COC(=O)CN1CCN(C(=O)c2ccc(-c3ccc(C(=N)N)cc3)cc2)CC1` [6(74), 4-amidino-4'-[(4-methoxycarbonylmethylpiperazino)-carbonyl]biphenyl dihydrochloride] the IC50 [1] was 24000 nM and the EC50 [2] was 3200 nM.
Molecule `COC(=O)CCN1CCN(C(=O)c2ccc(-c3ccc(C(=N)N)cc3)cc2)CC1` [6(75), 4-amidino-4'-[[(4-(2-methoxycarbonylethyl)-piperazino]carbonyl]biphenyldi hydrochloride] has an IC50 [1] of 27000 nM and an EC50 [2] of 3200 nM.
`COC(=O)C1CCN(C(=O)c2ccc(-c3ccc(C(=N)N)cc3)cc2)CC1` [6(81), 4-amidino-4'-[(4-methoxycarbonylpiperidino)-carbonyl]biphenyl] was tested, and the IC50 [1] was 25000 nM and the EC50 [2] was 34000 nM.
`N=C(N)c1ccc(-c2ccc(C(=O)NCC(N)=O)cc2)cc1` [6(86), 4-amidino-4'-(aminocarbonylmethylaminocarbonyl)-biphenyl hydrochloride] was tested, and the IC50 [1] was 5700 nM and the EC50 [2] was 21000 nM.
For `COC(=O)C1CCC(NC(=O)c2ccc(-c3ccc(C(=N)N)cc3)cc2)CC1` (stereo not shown) [6(87), 4-amidino-4'-[(4-methoxycarbonylcyclohexyl)-aminocarbonyl]biphenyl hydrochloride], the IC50 [1] was 3800 nM and the EC50 [2] was 60 nM.
In the case of `NCc1ccc(-c2ccc(C(=O)N3CCC(CC(=O)O)CC3)cc2)cc1` [10(1), 4-aminomethyl-4'-[(4-carboxymethylpiperidino)-carbonyl]biphenyl hydrochloride], the IC50 [1] is reported as 800 nM and the EC50 [2] is reported as 1800 nM.
For `Cl.N=C(N)c1ccc(-c2ccc(C(=O)N3CCC(CC(=O)O)CC3)cc2)cc1` [Example 1(39), 4-amidino-4'-[(4-carboxymethylpiperidino)-carbonyl]biphenyl hydrochloride], the animals died (mice; mice, intravenous, 60 mg/kg, three animals tested) was “none of the three animals tested died”, the IC50 [1] was 24 nM and the EC50 [2] was 100 nM.
With `N=C(N)c1ccc(-c2ccc(CC(=O)NCCC(=O)O)cc2)cc1` [Example 1, 4-Amidino-4'-[[(2-carboxyethyl)aminocarbonyl]methyl]-biphenyl] the IC50 [1] was 290 nM and the EC50 [2] was 1100 nM.
`N=C(N)c1ccc(-c2ccc(OCCCCCC(=O)O)cc2)cc1` [Example 2, 4-Amidino-4'-(5-carboxypentyloxy)biphenyl hydrochloride] gave an IC50 [1] of 210 nM and an EC50 [2] of 10000 nM.
`COc1ccc(CCNC(=O)C(CC(=O)O)NC(=O)CNC(=O)c2ccc(-c3ccc(C(=N)N)cc3)cc2)cc1` (stereo not shown) [Example 3, 4-Amidino-4'-[[[2-carboxy-1-[[2-(4-methoxyphenyl)-ethyl]aminocarbonyl]ethylamino]carbonylmethyl]-aminocarbonyl]biphenyl hydrochloride] showed an IC50 [1] of 1300 nM and an EC50 [2] of 16000 nM.
With `COC(=O)CCCCCOc1ccc(-c2ccc(C(=N)N)cc2)cc1` [Example 6, Di-[4-Amidino-4'-(5-methoxycarbonylpentyloxy)biphenyl]dihydrogencarbonate] the IC50 [1] was 570 nM and the EC50 [2] was 2600 nM.
`COC(=O)CC1CCN(C(=O)c2ccc(-c3ccc(C(=N)NC(=O)OC)cc3)cc2)CC1` [Example 8(5), 4-(N-methoxycarbonylamidino)-4'-[(4-methoxycarbonylmethylpiperidino)carbonyl]biphenyl] was tested, and the “duration of inhibition of collagen-induced thrombocyte aggregation ex vivo” value [3] was over 8 h, the toxic effects (mouse) was “no toxic effects were observed” and the toxic effects (rat) was “no toxic effects were observed”.
